This is an account of results in patent US4970228A, “Novel aminoalkyl-substituted heterocyclic sulfur compounds” (Merrell Dow Pharmaceuticals, priority 1989, dated 1990).

Test [1] has as its system spontaneously hypertensive rats. Description: Antihypertensive activity in vivo: continuous recording of arterial blood pressure in unanesthetized spontaneously hypertensive rats. Further details: Max Change MBP: unit not given here. The following applies: for % Lowering MBP / Max Change MBP: dosed as tosylate salt, MBP = mean blood pressure. How it is done: The ability of the compounds of this invention to lower blood pressure can be determined in vivo by using standard and well-known procedures such as those employed in the continuous recording of arterial blood pressure in conscious animals. For instance, test compounds are administered intraperitoneally (ip) to unanesthetized, spontaneously hypertensive rats and the arterial blood pressure is monitored continuously. In tests utilizing the above described procedure, the antihypertensive effects of the test compounds are readily apparent as indicated by the degree of lowering of mean blood pressure (MBP) noted in Table II.
*Dose was administered as mg/kg tosylate salt.

In test [2] the target is T1, dopamine-β-hydroxylase (DBH) (Bos taurus, UniProt P15101).
T1 sequence (P15101 1-610): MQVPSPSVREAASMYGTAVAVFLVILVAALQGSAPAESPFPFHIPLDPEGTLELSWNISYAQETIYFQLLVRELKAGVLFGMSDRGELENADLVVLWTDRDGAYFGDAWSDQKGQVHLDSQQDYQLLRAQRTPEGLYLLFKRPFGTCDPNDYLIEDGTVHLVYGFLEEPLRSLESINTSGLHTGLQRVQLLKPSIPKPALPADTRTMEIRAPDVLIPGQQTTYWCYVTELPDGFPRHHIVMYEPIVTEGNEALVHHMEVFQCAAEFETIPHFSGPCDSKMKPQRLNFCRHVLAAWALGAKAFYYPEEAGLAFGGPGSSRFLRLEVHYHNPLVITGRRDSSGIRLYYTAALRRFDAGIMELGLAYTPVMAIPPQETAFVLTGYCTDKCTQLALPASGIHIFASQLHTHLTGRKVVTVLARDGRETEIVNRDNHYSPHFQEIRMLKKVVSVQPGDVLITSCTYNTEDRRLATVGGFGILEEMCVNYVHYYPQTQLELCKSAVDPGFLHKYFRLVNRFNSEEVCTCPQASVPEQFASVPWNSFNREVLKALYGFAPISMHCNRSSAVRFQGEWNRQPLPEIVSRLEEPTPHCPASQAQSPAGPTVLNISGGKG
Description: Time-dependent DBH inhibitory activity in vitro (oxygen uptake, tyramine as substrate). The format is biochemical. As for the experimental part:
Since DBH is a major enzyme in the synthetic pathway of norepinephrine (NE), the presence of a DBH inhibitor would act to decrease the amount of NE produced, and thereby have an antihypertensive effect. The DBH inhibitory properties of the compounds of this invention can readily be determined by standard and well-known procedures. […] The test compound is added at the desired concentration, and the system is incubated. Aliquots are taken at different time intervals and DBH activity is measured using tyramine as the substrate. The reaction is followed by measuring oxygen uptake using a polarographic electrode and an oxygen monitor by the method of S. May, et al., J. Biol. Chem., 256, 2258 (1981).
t 1/2: time required for 50% log activity remaining

For test [3], the target named is T1, dopamine-β-hydroxylase (DBH). Description: DBH inhibition kinetics: conversion of tyramine to octopamine, HPLC with fluorometric quantitation. The format is biochemical. From the text:
The DBH inhibitory properties of the compounds of this invention can also readily be determined in vitro by standard and well known procedures for assaying the conversion of tyramine to octopamine in the presence of DBH, such as the procedure set forth by Feilchenfeld, N. B., Richter, H. W. and Waddell, W. H. in "Time-Resolved Assay of Dopamine Beta Hydroxylase Activity Utilizing High-Pressure Liquid Chromatography", Analyt. Biochem., 122, 124-128 (1982). Determination of the kinetics of DBH inhibition is exemplified by a procedure where the enzyme-assisted conversion of tyramine to octopamine is determined by incubating varying concentrations of test compound with constant concentrations of substrate, enzyme (DBH), molecular oxygen, an electron donor such as ascorbate and the necessary cofactors for the enzyme at optimal temperature and pH. After incubation, the product is separated out by high-performance liquid chromatography and quantitated fluorometrically, from which an inhibition constant (ki) can readily be calculated.

Regarding `NC/C=C1/CCCS1` [(Z)-2-(Dihydro-2(3H)-thienylidene)ethanamine], in test [1] (100 mg/kg ip), the “% Lowering MBP” value is listed as 28.6% and the “Max Change MBP” value is given as -54 +/-21. The “In vivo antihypertensive activity (in words)” value in test [1] (ip, spontaneously hypertensive rats) is on record as “active as an in vivo antihypertensive agent”. The “Activity in the time-dependent DBH inhibition assay (in words)” value in test [2] was “not active”.

Turning to `CC(N)C=C1SCCS1` (stereo not shown) [Compound 3 (Table I), 1-(1,3-dithiolan-2-ylidene)-2-propanamine], in test [1] (200 mg/kg ip), the “% Lowering MBP” value is 17.3% and the “Max Change MBP” value is on record as -30 +/-13.

On to `NCCC1SCCS1` [1,3-Dithiolane-2-ethanamine], for which the “DBH inhibitory activity (in words)” value in test [3] (judged from ki) is “potent activity as a DBH inhibitor”. Besides, in test [3] (tyramine to octopamine conversion, read-out: ki (inhibition constant), DBH), the Ki – broadly, a dissociation constant, usually derived from enzyme kinetics or from competition with a known ligand – came out at 11 µM.

Consider `NCC=C1SCCS1` [Compound 1 (Table I), 2-(1,3-dithiolan-2-ylidene)ethanamine], for which, in test [1] (200 mg/kg ip), the “% Lowering MBP” value is listed as 21.7% and the “Max Change MBP” value is reported as -39 +/-13. In addition, the “Activity in the time-dependent DBH inhibition assay (in words)” value in test [2] is “most active compound of the compounds tested”.

Regarding `NC/C=C1\CCCS1` [Compound 4 (Table I), (E)-2-(dihydro-2(3H)-thienylidene)ethanamine], in test [1] (100 mg/kg ip), the “% Lowering MBP” value was 30.0% and the “Max Change MBP” value is -55 +/-22.
